Results taken from patent publication US4786644A, “1-aryl-3-quinolinecarboxamide” (Hoechst-Roussel Pharmaceuticals Inc., priority 1987, dated 1988).

Experiments:
[1] = test system: carrageenan-induced rat paw edema; assay: carrageenan-induced rat paw edema antiinflammatory assay; type: in vivo; details: screening dose of 100 mg/kg, p.o.
[2] = test system: adjuvant-induced polyarthritis syndrome; assay: adjuvant-induced polyarthritis syndrome in rats; type: in vivo, rat (male Charles River-Wistar Lewis); details: rat, p.o., daily for 21 days
Description: This activity was measured by a procedure similar to that described by C. M. Pearson and F. D. Wood, Arthritis and Rheumatism, 2, 440 (1959).
Groups of 10 male Charles River-Wistar Lewis rats weighing 150 to 175 g were individually housed and maintained on a regular rat chow diet. Water was given ad libitum. The adjuvant was prepared by suspending 75 mg of Mycobacterium butyricum (Difco Laboratories, Detroit, Mich.) in 10 ml of white paraffin oil with continuous stirring for 2 hours at room temperature prior to administration. Test compounds are prepared by suspending the drug in water, adding one drop of Tween 80 per 10 ml of suspension, and homogenizing. The adjuvant suspension (0.1 ml) was injected into the footpad of the left hind paw of the rat. Test compound suspensions were adminstered orally (10 ml/kg) the day before adjuvant suspension injection and the administration was continued daily for 21 days. One group of ten rats was used for the test drug. Standard, adjuvant-injected control and non-injected control groups were run along with the test drug. Control animals received vehicle (10 ml/kg). Injected and non-injected paw volumes were determined on the day the adjuvant suspension was given, and on subsequent days thereafter (usually days 5, 10, 18, and 21) by the method of C. A. Winter, et al., Proc. Soc. Exp. Biol. Med., 111, 544 (1962).
The percent inhibition of paw volume (injected and non-injected paw) were calculated by the following formula: [formula] The results of the adjuvant-induced polyarthritis syndrome test procedure for several of the compounds of this invention are provided in Table 2.

[3] = test system: phenyl-p-quinone writhing; assay: phenyl-p-quinone writhing assay in mice (analgesic); type: in vivo, mouse (male, Charles River, CD-1); details: for Analgesic Activity, % Inhibition of Writhing: mouse, screening dose of 20 mg/kg, s.c.
Description: The procedure employed to determine analgetic utility is a modification of the phenyl-p-quinone writhing assay in mice, a standard assay for analgetic activity [Proc. Soc. Exptl. […] The solution is administered to the subject mice intraperitoneally at a dose of 10 ml per kg of body weight. A characteristic "writhe", an inward rotation of one or more feet with twisting and turning of the trunk, drawing in of the abdominal wall, lordosis and arching of the back, is produced.
A total of 28 male mice (Charles River, CD-1), weighing 18 to 30 grams, are employed for a time response. The subject animals receive food and water ad libitum. Test compounds are dissolved in distilled water, or suspended in distilled water containing one drop of a suitable surfactant, such as Tween-80.
Four groups of five animals (20 animals) are given the test compound subcutaneously (s.c.) or orally (p.o.) at 15, 30, 45 and 60 minutes prior to administration of the phenyl-p-quinone. A control group (2 animals per group) receive an equal volume of the vehicle. After the administration of the phenyl-p-quinone, the mice are placed separately in one liter beakers, and after five minutes, are observed for ten minutes. The number of writhes for each animal is recorded. The following formula is used to compute the percent inhibition: [formula]
A dose range determination is run in the same manner as the time response except 10 animals per group are tested at the peak time of test drug activity. Fifty animals, 4 test drug groups, and a vehicle control are employed. Animals are dosed and tested in a randomized manner. The time period with the greatest percent of inhibition is considered the peak time.

Structure (SMILES) | Inhibition of Carrageenan-Induced Rat Paw Edema, Percent Inhibition [1] [%] | percent inhibition of paw volume, Adjuvant-Treated Paw ([2]; screening dose of 50 mg/kg) [%] | percent inhibition of paw volume, Non-Injected Paw ([2]; screening dose of 50 mg/kg) [%] | Analgesic Activity, % Inhibition of Writhing [3] [%] | other results
CC(=O)Oc1ccccc1C(=O)O [Aspirin, reference compound] | -29 | -22 | -33 | – | ED50 ([3]; Mus musculus, sc, read-out: ED50 (dose effecting 50% inhibition of writhing)): 32.8 mg/kg
O=C(Nc1ccccn1)c1nc(-c2ccccc2)c2ccccc2c1O [Example 1, 4-Hydroxy-1-phenyl-N-(2-pyridyl)-3-isoquinolinecarboxamide] | – | – | – | – | percent inhibition of paw volume, Adjuvant-Treated Paw ([2]; screening dose of 45 mg/kg): +1%; percent inhibition of paw volume, Non-Injected Paw ([2]; screening dose of 45 mg/kg): -17%
O=C(Nc1cccc(Cl)c1)c1nc(-c2ccccc2)c2ccccc2c1O [Example 3, N-(3-Chlorophenyl)-4-hydroxy-1-phenyl-3-isoquinolinecarboxamide] | – | – | – | 51 | –
O=C(Nc1ccc(Cl)cn1)c1nc(-c2ccccc2)c2ccccc2c1O [Example 4, N-(5-Chloro-2-pyridyl)-4-hydroxy-1-phenyl-3-isoquinolinecarboxamide] | – | -22 | -38 | 57 | –
O=C(Nc1ccccc1)C1=C(O)c2ccccc2N(c2ccccc2)C1 [Example 8, 1,2-Dihydro-4-hydroxy-1-phenyl-N-phenyl-3-quinolinecarboxamide] | -28 | -5 | -26 | – | –
O=C(Nc1cnccn1)C1=C(O)c2ccccc2N(c2ccccc2)C1 [Example 9, 1,2-Dihydro-4-hydroxy-1-phenyl-N-(2-pyrazinyl)-3-quinolinecarboxamide] | -24 | – | – | 31 | –
Cc1csc(NC(=O)C2=C(O)c3ccccc3N(c3ccccc3)C2)n1 [Example 10, 1,2-Dihydro-4-hydroxy-N-(4-methyl-2-thiazolyl)-1-phenyl-3-quinolinecarboxamide] | – | – | – | 36 | –
O=C(Nc1ccc(Br)cn1)C1=C(O)c2ccccc2N(c2ccccc2)C1 [Example 12, N-(5-Bromo-2-pyridyl)-1,2-dihydro-4-hydroxy-1-phenyl-3-quinolinecarboxamide] | – | -2 | -22 | 39 | –
O=C(Nc1ccccn1)c1cn(-c2ccccc2)c2ccccc2c1=O [Example 13, 1,4-Dihydro-4-oxo-1-phenyl-N-(2-pyridyl)-3-quinolinecarboxamide] | -25 | – | – | – | –
O=C(Nc1cnccn1)c1cn(-c2ccccc2)c2ccccc2c1=O [Example 17, 1,4-Dihydro-4-oxo-1-phenyl-N-(2-pyrazinyl)-3-quinolinecarboxamide] | -23 | -7 | -23 | – | –
Cc1csc(NC(=O)c2cn(-c3ccccc3)c3ccccc3c2=O)n1 [Example 18, 1,4-Dihydro-N-(4-methyl-2-thiazolyl)-4-oxo-1-phenyl-3-quinolinecarboxamide] | -28 | -12 | -26 | – | –
Cc1cccc(NC(=O)c2cn(-c3ccccc3)c3ccccc3c2=O)n1 [Example 19, 1,4-Dihydro-N-(6-methyl-2-pyridyl)-4-oxo-1-phenyl-3-quinolinecarboxamide] | – | – | – | 35 | –
Cc1ccc(NC(=O)c2cn(-c3ccccc3)c3ccccc3c2=O)nc1 [Example 20, 1,4-Dihydro-N-(5-methyl-2-pyridyl)-4-oxo-1-phenyl-3-quinolinecarboxamide] | – | – | – | 30 | –
